According to the supplement of paper PMC10627819:

Experiments:
B. subtilis 168 [1] = assay: Bliss interaction score (quartile over a dose matrix) (fitness difference); higher = more antagonism (negative = synergy)
How it was run: (§1)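 At entry into stationary phase, OD595 was recorded and divided by the robust mean of the no-drug wells on that plate, with any value above 1 set to 1. This gives the fitness measure used throughout. Single-drug fitness was inferred from combination data, and the Bliss score, observed minus product-expected fitness, is shown as quartiles across technical, biological and donor/recipient replicates.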

S. pneumoniae D39V [2] = assay: as above
How it was run: as §1

S. aureus Newman [3] = assay: as above
How it was run: as §1

S. aureus DSM 20231 [4] = assay: as above
How it was run: as §1

B. subtilis 168 [5] = assay: fitness (endpoint OD595 vs no drug) (fraction); higher = more growth
How it was run: (§2)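 Background-subtracted growth curves were the basis for fitness, taken as the optical density at entry into stationary phase over the robust mean of no-drug control wells. A cap of 1 was applied. The curves came from OD595 readings every 30 min for 14 h at 37 °C, in 384-well plates seeded at OD595 0.01 with 30 µl, or 55 µl for S. pneumoniae.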

S. pneumoniae D39V [6] = assay: as above
How it was run: as §2

S. aureus Newman [7] = assay: as above
How it was run: as §2

S. aureus DSM 20231 [8] = assay: as above
How it was run: as §2
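Throughout, for Bliss interaction score (quartile over a dose matrix): first quartile when negative (synergy) and third quartile when positive (antagonism).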

Cc1onc(-c2ccccc2)c1C(=O)N[C@@H]1C(=O)N2[C@@H]1SC(C)(C)[C@@H]2C(=O)O [Oxacillin] + CN[C@@H]1[C@H](O[C@H]2[C@H](O[C@H]3[C@H](O)[C@@H](O)[C@H](N=C(N)N)[C@@H](O)[C@@H]3N=C(N)N)O[C@@H](C)[C@]2(O)C=O)O[C@@H](CO)[C@H](O)[C@H]1O [Streptomycin]
Conditions | Bliss interaction score
B. subtilis 168 [1] | -0.113
S. aureus DSM 20231 [4] | -0.0653
S. aureus Newman [3] | -0.0537
S. pneumoniae D39V [2] | 0.093

fitness
Conditions | partner 1 µg/mL | partner 2 µg/mL | partner 4 µg/mL | partner 8 µg/mL
B. subtilis 168 [5], first compound 0.002 µg/mL | – | 0.982 | 0.369 | 0.0333
B. subtilis 168 [5], first compound 0.004 µg/mL | – | 0.941 | 0.208 | 0.0502
B. subtilis 168 [5], first compound 0.008 µg/mL | – | 0.931 | 0.134 | 0.0492
S. aureus Newman [7], first compound 0.0156 µg/mL | 0.808 | 0.726 | – | –
S. aureus Newman [7], first compound 0.0312 µg/mL | 0.738 | 0.644 | – | –
S. aureus Newman [7], first compound 0.0625 µg/mL | 0.606 | 0.531 | – | –
S. pneumoniae D39V [6], first compound 0.01 µg/mL | – | 0.938 | 0.98 | 0.909
S. pneumoniae D39V [6], first compound 0.02 µg/mL | – | 0.88 | 0.931 | 0.908
S. pneumoniae D39V [6], first compound 0.04 µg/mL | – | 0.33 | 0.399 | 0.441

fitness, one replicate
Conditions | first compound 0.01 µg/mL | first compound 0.02 µg/mL | first compound 0.04 µg/mL | first compound 0.075 µg/mL | first compound 0.15 µg/mL | first compound 0.3 µg/mL
B. subtilis 168 [5], partner 2 µg/mL | – | – | – | 0.534 | 0.0325 | 0.0421
B. subtilis 168 [5], partner 4 µg/mL | – | – | – | 0.0966 | 0.025 | 0.0294
B. subtilis 168 [5], partner 8 µg/mL | – | – | – | 0.0343 | 0.0288 | 0.0352
S. pneumoniae D39V [6], partner 16 µg/mL | 0.887 | 0.863 | 0.436 | – | – | –

Cc1onc(-c2ccccc2)c1C(=O)N[C@@H]1C(=O)N2[C@@H]1SC(C)(C)[C@@H]2C(=O)O [Oxacillin] + COc1cc(Cc2cnc(N)nc2N)cc(OC)c1OC [Trimethoprim]
Conditions | Bliss interaction score
B. subtilis 168 [1] | 0.0589
S. aureus DSM 20231 [4] | 0.0401
S. aureus Newman [3] | -0.0935
S. pneumoniae D39V [2] | 0.164

fitness
Conditions | partner 0.25 µg/mL | partner 0.5 µg/mL | partner 1 µg/mL
B. subtilis 168 [5], first compound 0.002 µg/mL | – | 0.46 | –
B. subtilis 168 [5], first compound 0.004 µg/mL | – | 0.475 | –
B. subtilis 168 [5], first compound 0.008 µg/mL | – | 0.467 | –
B. subtilis 168 [5], first compound 0.031 µg/mL | – | 0.384 | –
S. aureus DSM 20231 [8], first compound 0.0156 µg/mL | 0.561 | 0.129 | 0.0621
S. aureus DSM 20231 [8], first compound 0.0312 µg/mL | 0.559 | 0.147 | 0.0523
S. aureus DSM 20231 [8], first compound 0.0625 µg/mL | 0.438 | 0.0674 | 0.0399

one replicate
Conditions | fitness
B. subtilis 168 [5], first compound 0.002 µg/mL, partner 1 µg/mL | 0.498
B. subtilis 168 [5], first compound 0.002 µg/mL, partner 2 µg/mL | 0.37
B. subtilis 168 [5], first compound 0.004 µg/mL, partner 1 µg/mL | 0.418
B. subtilis 168 [5], first compound 0.004 µg/mL, partner 2 µg/mL | 0.257
B. subtilis 168 [5], first compound 0.0078 µg/mL, partner 0.1 µg/mL | 0.898
B. subtilis 168 [5], first compound 0.0078 µg/mL, partner 0.125 µg/mL | 0.385
B. subtilis 168 [5], first compound 0.0078 µg/mL, partner 0.2 µg/mL | 0.804
B. subtilis 168 [5], first compound 0.0078 µg/mL, partner 0.4 µg/mL | 0.578
B. subtilis 168 [5], first compound 0.008 µg/mL, partner 1 µg/mL | 0.351
B. subtilis 168 [5], first compound 0.008 µg/mL, partner 2 µg/mL | 0.304
B. subtilis 168 [5], first compound 0.0155 µg/mL, partner 0.1 µg/mL | 0.839
B. subtilis 168 [5], first compound 0.0155 µg/mL, partner 0.125 µg/mL | 0.363
B. subtilis 168 [5], first compound 0.0155 µg/mL, partner 0.2 µg/mL | 0.802
B. subtilis 168 [5], first compound 0.0155 µg/mL, partner 0.4 µg/mL | 0.599
B. subtilis 168 [5], first compound 0.031 µg/mL, partner 0.1 µg/mL | 0.882
B. subtilis 168 [5], first compound 0.031 µg/mL, partner 0.125 µg/mL | 0.352
B. subtilis 168 [5], first compound 0.031 µg/mL, partner 0.2 µg/mL | 0.763
B. subtilis 168 [5], first compound 0.031 µg/mL, partner 0.4 µg/mL | 0.536
B. subtilis 168 [5], first compound 0.075 µg/mL, partner 0.125 µg/mL | 0.0694
B. subtilis 168 [5], first compound 0.075 µg/mL, partner 0.25 µg/mL | 0.0331
B. subtilis 168 [5], first compound 0.075 µg/mL, partner 0.5 µg/mL | 0.026
B. subtilis 168 [5], first compound 0.15 µg/mL, partner 0.125 µg/mL | 0.0313
B. subtilis 168 [5], first compound 0.15 µg/mL, partner 0.25 µg/mL | 0.0424
B. subtilis 168 [5], first compound 0.15 µg/mL, partner 0.5 µg/mL | 0.0705
B. subtilis 168 [5], first compound 0.3 µg/mL, partner 0.125 µg/mL | 0.0436
B. subtilis 168 [5], first compound 0.3 µg/mL, partner 0.25 µg/mL | 0.0503
B. subtilis 168 [5], first compound 0.3 µg/mL, partner 0.5 µg/mL | 0.0489
S. aureus DSM 20231 [8], first compound 0.0156 µg/mL, partner 0.125 µg/mL | 0.558
S. aureus DSM 20231 [8], first compound 0.0312 µg/mL, partner 0.125 µg/mL | 0.523
S. aureus DSM 20231 [8], first compound 0.0625 µg/mL, partner 0.125 µg/mL | 0.477

C[n+]1ccc(-c2cc[n+](C)cc2)cc1 [Paraquat] + CN(C)c1cc(NC(=O)CNC(C)(C)C)c(O)c2c1C[C@H]1C[C@H]3[C@H](N(C)C)C(O)=C(C(N)=O)C(=O)[C@@]3(O)C(O)=C1C2=O [Tigecycline]
Conditions | Bliss interaction score
B. subtilis 168 [1] | -0.0331
S. aureus DSM 20231 [4] | 0.0449
S. aureus Newman [3] | 0.0431
S. pneumoniae D39V [2] | -0.0568

fitness
Conditions | first compound 1.25 µg/mL | first compound 1.5 µg/mL | first compound 2.5 µg/mL | first compound 3 µg/mL | first compound 5 µg/mL | first compound 6 µg/mL
B. subtilis 168 [5], partner 0.039 µg/mL | 0.982 | – | 0.975 | – | 0.88 | –
B. subtilis 168 [5], partner 0.078 µg/mL | 0.919 | – | 0.957 | – | 0.86 | –
B. subtilis 168 [5], partner 0.156 µg/mL | 0.94 | – | 0.93 | – | 0.84 | –
S. aureus Newman [7], partner 0.039 µg/mL | 0.905 | – | 0.929 | – | 0.881 | –
S. aureus Newman [7], partner 0.078 µg/mL | ≥ 1 | – | 0.952 | – | 0.934 | –
S. aureus Newman [7], partner 0.156 µg/mL | 0.975 | – | 0.925 | – | 0.898 | –
S. pneumoniae D39V [6], partner 0.65 µg/mL | – | 0.974 | – | 0.967 | – | 0.939
S. pneumoniae D39V [6], partner 1.3 µg/mL | – | 0.956 | – | 0.986 | – | 0.951
S. pneumoniae D39V [6], partner 2.6 µg/mL | – | 0.923 | – | 0.9 | – | 0.898

fitness, B. subtilis 168 [5], one replicate
Conditions | first compound 1.25 µg/mL | first compound 2.5 µg/mL | first compound 5 µg/mL
partner 0.125 µg/mL | ≥ 1 | ≥ 1 | ≥ 1
partner 0.25 µg/mL | ≥ 1 | 0.93 | 0.941
partner 0.5 µg/mL | 0.998 | 0.973 | 0.893

C[n+]1ccc(-c2cc[n+](C)cc2)cc1 [Paraquat] + CN[C@@H]1[C@H](O[C@H]2[C@H](O[C@H]3[C@H](O)[C@@H](O)[C@H](N=C(N)N)[C@@H](O)[C@@H]3N=C(N)N)O[C@@H](C)[C@]2(O)C=O)O[C@@H](CO)[C@H](O)[C@H]1O [Streptomycin]
Conditions | Bliss interaction score
B. subtilis 168 [1] | -0.119
S. aureus DSM 20231 [4] | 0.118
S. aureus Newman [3] | 0.0567
S. pneumoniae D39V [2] | -0.0799

fitness
Conditions | partner 1 µg/mL | partner 2 µg/mL | partner 4 µg/mL | partner 8 µg/mL
B. subtilis 168 [5], first compound 1.25 µg/mL | – | 0.886 | – | 0.0237
B. subtilis 168 [5], first compound 2.5 µg/mL | – | 0.924 | – | 0.0505
B. subtilis 168 [5], first compound 5 µg/mL | – | 0.777 | 0.26 | 0.0406
S. aureus Newman [7], first compound 1.25 µg/mL | 0.99 | 0.882 | – | –
S. aureus Newman [7], first compound 2.5 µg/mL | 0.907 | 0.912 | – | –
S. aureus Newman [7], first compound 5 µg/mL | 0.908 | 0.859 | – | –
S. pneumoniae D39V [6], first compound 1.5 µg/mL | – | 0.953 | 0.983 | 0.89
S. pneumoniae D39V [6], first compound 3 µg/mL | – | 0.967 | 0.964 | 0.884
S. pneumoniae D39V [6], first compound 6 µg/mL | – | 0.946 | 0.916 | 0.866

S. pneumoniae D39V [6], partner 16 µg/mL, one replicate
Conditions | fitness
first compound 1.5 µg/mL | 0.865
first compound 3 µg/mL | 0.857
first compound 6 µg/mL | 0.722
